According to ChEMBL document CHEMBL1201862, “PubChem BioAssay data set” (2004):
Calls of active or inactive are those of the source.

Legend:
[1] = molecular target: T1, Trace amine-associated receptor 1 (Homo sapiens, UniProt Q96RJ0); assay: Fluorescence-based cell-based high throughput dose response assay to identify agonists of the human trace amine associated receptor 1 (TAAR1).; format: functional
T1 sequence (Q96RJ0 whole entry): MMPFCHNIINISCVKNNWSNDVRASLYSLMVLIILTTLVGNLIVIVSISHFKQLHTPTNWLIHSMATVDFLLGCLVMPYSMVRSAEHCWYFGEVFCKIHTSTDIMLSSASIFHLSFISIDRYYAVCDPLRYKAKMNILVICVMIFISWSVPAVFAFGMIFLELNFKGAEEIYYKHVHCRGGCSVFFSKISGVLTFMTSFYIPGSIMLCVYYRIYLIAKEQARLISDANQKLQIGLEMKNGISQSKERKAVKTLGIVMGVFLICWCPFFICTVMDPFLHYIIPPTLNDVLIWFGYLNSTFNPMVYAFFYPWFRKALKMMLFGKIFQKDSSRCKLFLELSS

cells [2] = format: functional, cell-based
[3] = molecular target: T1, Trace amine-associated receptor 1; assay: Counterscreen for agonists of the human trace amine associated receptor 1 (hTAAR1): Fluorescence-based cell-based high throughput dose response assay to identify hTAAR1 agonist that also desensitize TAAR1 receptor response.; format: functional
cells [4] = format: functional, cell-based; remark: listed apart in the source
cells [5] = assay: cells
[6] = molecular target: T2, Oxysterols receptor LXR-beta (Homo sapiens, UniProt P55055); format: functional, cell-based;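 further: Cell-based luminescence dose-response assay of agonist activity at LXR, run as a confirmatory counterscreen to a daf-12 agonist screen; HEK293 cells with Gal4-LXR fusion and GAL4-driven luciferase reporter; agonist potency from rising luciferase signal of a Gal4-LXR reporter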
T2 sequence (P55055 whole entry): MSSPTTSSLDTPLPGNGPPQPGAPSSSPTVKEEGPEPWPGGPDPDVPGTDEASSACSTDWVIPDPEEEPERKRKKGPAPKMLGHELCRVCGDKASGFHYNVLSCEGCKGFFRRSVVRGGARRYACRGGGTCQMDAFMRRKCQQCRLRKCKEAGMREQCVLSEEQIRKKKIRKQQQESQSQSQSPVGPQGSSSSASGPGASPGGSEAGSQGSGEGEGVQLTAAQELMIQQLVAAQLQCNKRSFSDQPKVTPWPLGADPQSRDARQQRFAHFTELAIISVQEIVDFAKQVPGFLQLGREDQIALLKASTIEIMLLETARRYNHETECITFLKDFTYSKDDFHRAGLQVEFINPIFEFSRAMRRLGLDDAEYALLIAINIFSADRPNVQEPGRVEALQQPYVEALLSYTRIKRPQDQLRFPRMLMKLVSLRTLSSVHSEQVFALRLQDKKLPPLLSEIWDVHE

Kallikrein-7 = Kallikrein-7 (Homo sapiens, UniProt P49862); assay: Fluorescence Intensity-based biochemical primary high throughput dose response assay to identify activators of kallikrein-7 (K7) zymogen.
[7] = ADAM10 protease inhibitors, dose response, selectivity assay for ADAM17 exosite inhibitor project, biochemical, FRET peptide substrate, recombinant human ADAM10 (AID 743259);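 further: ADAM10 enzyme cleaving a FRET peptide substrate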
[8] = molecular target: Disintegrin and metalloproteinase domain-containing protein 17 (Homo sapiens, UniProt P78536); assay: exosite inhibitors of ADAM17, dose response, biochemical (AID 743260)
[9] = molecular target: T3, Carboxy-terminal domain RNA polymerase II polypeptide A small phosphatase 1 (Homo sapiens, UniProt Q9GZU7); assay: inhibitors of CTDSP1, concentration-response testing, biochemical assay, absorbance-based, actives from ultra-high-throughput screening (AID 540297); format: functional
T3 sequence (Q9GZU7 whole entry): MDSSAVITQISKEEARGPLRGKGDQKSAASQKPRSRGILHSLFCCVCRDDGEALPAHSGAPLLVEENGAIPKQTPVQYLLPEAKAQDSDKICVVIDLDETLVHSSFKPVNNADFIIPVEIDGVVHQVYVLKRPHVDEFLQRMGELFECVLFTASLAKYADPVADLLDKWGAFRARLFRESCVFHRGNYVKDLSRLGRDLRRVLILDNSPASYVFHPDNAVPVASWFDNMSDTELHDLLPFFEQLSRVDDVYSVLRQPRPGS

Fatty acid synthase [10] = molecular target: T4, Fatty acid synthase (Homo sapiens, UniProt P49327); assay: FAS thioesterase domain inhibitors, dose response, biochemical, endpoint fluorescence intensity, uHTS hits (AID 624327); format: functional;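 further: fluorescence from hydrolysis of an O-methyl fluorescein acyl ester substrate by the enzyme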
[11] = molecular target: T5, High affinity choline transporter 1 (Homo sapiens, UniProt Q9GZV3); assay: CHT inhibitors, dose response, cell-based, 5-point CRC, membrane potential dye (AID 504840); format: functional
T5 sequence (Q9GZV3 whole entry): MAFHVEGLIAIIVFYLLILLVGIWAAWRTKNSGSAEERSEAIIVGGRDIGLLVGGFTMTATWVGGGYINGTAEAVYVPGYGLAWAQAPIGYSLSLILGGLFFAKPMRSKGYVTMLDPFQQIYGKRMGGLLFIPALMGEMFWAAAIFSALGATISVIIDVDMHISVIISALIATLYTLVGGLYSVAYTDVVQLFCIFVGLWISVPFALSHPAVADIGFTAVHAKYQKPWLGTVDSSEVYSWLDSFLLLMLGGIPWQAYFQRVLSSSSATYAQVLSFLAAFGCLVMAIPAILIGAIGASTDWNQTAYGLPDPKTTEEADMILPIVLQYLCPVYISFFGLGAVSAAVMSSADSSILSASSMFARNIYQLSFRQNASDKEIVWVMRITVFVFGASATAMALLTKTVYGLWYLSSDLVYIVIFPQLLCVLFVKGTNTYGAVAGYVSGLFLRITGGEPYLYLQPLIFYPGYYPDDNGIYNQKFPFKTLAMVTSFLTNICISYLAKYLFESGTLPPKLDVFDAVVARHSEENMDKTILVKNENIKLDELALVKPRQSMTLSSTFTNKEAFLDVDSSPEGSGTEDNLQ

Fatty acid synthase [12] = molecular target: T4, Fatty acid synthase; assay: FAS thioesterase domain inhibitors, dose response, biochemical, kinetic fluorescence intensity (AID 624326); format: functional;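 further: rate of fluorescence rise from hydrolysis of a fluorogenic O-methyl fluorescein ester substrate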
[13] = molecular target: T6, Histone-lysine N-methyltransferase NSD2 (Homo sapiens, UniProt O96028); format: biochemical
T6 sequence (O96028 whole entry): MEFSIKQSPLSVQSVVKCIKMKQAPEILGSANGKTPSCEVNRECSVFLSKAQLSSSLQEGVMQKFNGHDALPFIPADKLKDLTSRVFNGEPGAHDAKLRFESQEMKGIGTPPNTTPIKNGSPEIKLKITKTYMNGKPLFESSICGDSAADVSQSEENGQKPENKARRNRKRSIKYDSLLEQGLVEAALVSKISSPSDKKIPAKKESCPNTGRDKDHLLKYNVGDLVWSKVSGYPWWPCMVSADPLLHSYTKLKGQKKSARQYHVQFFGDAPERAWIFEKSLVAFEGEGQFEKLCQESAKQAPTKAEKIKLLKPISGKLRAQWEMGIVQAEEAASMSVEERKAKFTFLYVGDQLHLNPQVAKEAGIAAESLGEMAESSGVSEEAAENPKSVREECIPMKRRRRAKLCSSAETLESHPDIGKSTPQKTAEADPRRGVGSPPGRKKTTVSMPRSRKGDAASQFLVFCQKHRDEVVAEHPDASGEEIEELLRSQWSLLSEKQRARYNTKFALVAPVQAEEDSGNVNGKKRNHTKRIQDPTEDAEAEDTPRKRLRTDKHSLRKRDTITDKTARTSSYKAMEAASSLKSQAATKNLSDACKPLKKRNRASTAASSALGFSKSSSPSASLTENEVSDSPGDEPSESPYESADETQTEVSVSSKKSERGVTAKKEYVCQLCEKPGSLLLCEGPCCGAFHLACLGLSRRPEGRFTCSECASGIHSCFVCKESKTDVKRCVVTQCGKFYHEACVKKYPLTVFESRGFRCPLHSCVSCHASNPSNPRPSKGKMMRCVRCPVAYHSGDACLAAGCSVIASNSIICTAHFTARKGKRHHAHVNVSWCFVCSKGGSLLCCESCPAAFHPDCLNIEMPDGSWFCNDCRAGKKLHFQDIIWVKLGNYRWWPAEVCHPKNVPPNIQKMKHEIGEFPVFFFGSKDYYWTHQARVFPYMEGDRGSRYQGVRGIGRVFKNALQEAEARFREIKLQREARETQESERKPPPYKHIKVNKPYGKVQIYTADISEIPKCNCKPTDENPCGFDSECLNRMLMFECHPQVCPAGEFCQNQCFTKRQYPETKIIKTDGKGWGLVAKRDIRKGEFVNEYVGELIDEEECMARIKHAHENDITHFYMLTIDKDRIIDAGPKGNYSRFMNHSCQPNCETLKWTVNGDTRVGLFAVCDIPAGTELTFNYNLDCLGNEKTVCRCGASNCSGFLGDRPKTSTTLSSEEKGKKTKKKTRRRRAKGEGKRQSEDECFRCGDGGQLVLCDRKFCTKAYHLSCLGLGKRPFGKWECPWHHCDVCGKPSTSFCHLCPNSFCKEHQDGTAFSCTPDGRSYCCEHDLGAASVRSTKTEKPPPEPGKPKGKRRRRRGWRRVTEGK

P388/ADR = assay: cells; format: functional; conditions: Mus musculus
SN12K1 = assay: cells; format: functional; conditions: Homo sapiens
P388 = assay: cells; format: functional; conditions: Mus musculus
Nonstructural protein 1 = Nonstructural protein 1 (Influenza A virus, UniProt Q194T2); format: functional, Influenza A virus (A/California/07/2009(H1N1))
[14] = molecular target: T7, DNA repair protein RAD52 homolog (Homo sapiens, UniProt P43351); format: functional, biochemical
T7 sequence (P43351 whole entry): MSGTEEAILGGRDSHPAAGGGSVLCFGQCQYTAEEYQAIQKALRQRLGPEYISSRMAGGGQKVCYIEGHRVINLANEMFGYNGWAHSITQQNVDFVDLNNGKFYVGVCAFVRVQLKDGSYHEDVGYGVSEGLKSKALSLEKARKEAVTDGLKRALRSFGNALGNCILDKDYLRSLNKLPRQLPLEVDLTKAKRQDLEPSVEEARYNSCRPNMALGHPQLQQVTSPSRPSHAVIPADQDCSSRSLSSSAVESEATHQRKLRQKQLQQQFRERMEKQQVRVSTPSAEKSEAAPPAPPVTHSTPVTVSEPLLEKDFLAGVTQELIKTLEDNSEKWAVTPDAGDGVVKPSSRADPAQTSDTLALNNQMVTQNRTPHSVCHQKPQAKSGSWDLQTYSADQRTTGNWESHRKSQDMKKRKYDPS

[15] = molecular target: T8, Rac GTPase-activating protein 1 (Homo sapiens, UniProt Q9H0H5); assay: MgcRacGAP GTPase-activating activity inhibitors, confirmation, biochemical, ADP Hunter fluorescence, primary and confirmatory (AID 624330); format: functional
T8 sequence (Q9H0H5 whole entry): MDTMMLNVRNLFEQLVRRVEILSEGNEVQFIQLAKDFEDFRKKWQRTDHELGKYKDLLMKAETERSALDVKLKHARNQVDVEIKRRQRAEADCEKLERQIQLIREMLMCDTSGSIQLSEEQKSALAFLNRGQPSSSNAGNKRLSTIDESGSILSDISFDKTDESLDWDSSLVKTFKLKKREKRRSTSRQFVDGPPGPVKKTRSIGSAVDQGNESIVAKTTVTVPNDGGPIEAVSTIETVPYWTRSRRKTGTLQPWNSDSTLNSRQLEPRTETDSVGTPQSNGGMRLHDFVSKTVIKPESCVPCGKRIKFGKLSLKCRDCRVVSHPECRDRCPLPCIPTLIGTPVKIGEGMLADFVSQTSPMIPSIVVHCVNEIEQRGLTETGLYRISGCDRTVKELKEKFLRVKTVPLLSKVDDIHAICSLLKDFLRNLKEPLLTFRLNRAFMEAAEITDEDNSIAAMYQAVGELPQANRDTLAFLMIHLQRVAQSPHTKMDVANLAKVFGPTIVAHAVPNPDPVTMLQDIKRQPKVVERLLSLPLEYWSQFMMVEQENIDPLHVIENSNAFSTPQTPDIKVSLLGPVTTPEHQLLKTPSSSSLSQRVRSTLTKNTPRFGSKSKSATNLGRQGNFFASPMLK

Chain of Disintegrin and metalloproteinase domain-containing protein 17 (P78536 whole entry, the tested form may be a part): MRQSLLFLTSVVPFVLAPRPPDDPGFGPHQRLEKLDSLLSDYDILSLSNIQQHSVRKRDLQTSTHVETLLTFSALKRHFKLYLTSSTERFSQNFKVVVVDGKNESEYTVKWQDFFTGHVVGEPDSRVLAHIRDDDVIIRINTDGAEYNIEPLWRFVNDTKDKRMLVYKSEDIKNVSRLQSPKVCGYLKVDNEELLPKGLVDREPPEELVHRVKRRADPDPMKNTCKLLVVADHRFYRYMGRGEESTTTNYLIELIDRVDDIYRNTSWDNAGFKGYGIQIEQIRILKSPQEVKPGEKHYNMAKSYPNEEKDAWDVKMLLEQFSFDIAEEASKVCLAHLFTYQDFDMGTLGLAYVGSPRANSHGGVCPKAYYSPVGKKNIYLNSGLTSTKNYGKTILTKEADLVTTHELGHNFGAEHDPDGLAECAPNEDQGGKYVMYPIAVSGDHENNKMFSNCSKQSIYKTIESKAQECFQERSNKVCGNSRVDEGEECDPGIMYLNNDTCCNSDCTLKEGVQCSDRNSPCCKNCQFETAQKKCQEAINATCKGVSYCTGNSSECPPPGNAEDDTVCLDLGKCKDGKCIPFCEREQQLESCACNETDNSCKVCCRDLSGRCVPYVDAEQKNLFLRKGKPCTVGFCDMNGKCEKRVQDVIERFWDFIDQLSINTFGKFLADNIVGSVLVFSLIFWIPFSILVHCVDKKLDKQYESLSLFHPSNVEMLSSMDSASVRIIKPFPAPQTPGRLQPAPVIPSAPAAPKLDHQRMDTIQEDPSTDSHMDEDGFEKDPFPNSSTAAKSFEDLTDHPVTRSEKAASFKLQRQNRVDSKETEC
T4 sequence (P49327 whole entry, the tested form may be a part): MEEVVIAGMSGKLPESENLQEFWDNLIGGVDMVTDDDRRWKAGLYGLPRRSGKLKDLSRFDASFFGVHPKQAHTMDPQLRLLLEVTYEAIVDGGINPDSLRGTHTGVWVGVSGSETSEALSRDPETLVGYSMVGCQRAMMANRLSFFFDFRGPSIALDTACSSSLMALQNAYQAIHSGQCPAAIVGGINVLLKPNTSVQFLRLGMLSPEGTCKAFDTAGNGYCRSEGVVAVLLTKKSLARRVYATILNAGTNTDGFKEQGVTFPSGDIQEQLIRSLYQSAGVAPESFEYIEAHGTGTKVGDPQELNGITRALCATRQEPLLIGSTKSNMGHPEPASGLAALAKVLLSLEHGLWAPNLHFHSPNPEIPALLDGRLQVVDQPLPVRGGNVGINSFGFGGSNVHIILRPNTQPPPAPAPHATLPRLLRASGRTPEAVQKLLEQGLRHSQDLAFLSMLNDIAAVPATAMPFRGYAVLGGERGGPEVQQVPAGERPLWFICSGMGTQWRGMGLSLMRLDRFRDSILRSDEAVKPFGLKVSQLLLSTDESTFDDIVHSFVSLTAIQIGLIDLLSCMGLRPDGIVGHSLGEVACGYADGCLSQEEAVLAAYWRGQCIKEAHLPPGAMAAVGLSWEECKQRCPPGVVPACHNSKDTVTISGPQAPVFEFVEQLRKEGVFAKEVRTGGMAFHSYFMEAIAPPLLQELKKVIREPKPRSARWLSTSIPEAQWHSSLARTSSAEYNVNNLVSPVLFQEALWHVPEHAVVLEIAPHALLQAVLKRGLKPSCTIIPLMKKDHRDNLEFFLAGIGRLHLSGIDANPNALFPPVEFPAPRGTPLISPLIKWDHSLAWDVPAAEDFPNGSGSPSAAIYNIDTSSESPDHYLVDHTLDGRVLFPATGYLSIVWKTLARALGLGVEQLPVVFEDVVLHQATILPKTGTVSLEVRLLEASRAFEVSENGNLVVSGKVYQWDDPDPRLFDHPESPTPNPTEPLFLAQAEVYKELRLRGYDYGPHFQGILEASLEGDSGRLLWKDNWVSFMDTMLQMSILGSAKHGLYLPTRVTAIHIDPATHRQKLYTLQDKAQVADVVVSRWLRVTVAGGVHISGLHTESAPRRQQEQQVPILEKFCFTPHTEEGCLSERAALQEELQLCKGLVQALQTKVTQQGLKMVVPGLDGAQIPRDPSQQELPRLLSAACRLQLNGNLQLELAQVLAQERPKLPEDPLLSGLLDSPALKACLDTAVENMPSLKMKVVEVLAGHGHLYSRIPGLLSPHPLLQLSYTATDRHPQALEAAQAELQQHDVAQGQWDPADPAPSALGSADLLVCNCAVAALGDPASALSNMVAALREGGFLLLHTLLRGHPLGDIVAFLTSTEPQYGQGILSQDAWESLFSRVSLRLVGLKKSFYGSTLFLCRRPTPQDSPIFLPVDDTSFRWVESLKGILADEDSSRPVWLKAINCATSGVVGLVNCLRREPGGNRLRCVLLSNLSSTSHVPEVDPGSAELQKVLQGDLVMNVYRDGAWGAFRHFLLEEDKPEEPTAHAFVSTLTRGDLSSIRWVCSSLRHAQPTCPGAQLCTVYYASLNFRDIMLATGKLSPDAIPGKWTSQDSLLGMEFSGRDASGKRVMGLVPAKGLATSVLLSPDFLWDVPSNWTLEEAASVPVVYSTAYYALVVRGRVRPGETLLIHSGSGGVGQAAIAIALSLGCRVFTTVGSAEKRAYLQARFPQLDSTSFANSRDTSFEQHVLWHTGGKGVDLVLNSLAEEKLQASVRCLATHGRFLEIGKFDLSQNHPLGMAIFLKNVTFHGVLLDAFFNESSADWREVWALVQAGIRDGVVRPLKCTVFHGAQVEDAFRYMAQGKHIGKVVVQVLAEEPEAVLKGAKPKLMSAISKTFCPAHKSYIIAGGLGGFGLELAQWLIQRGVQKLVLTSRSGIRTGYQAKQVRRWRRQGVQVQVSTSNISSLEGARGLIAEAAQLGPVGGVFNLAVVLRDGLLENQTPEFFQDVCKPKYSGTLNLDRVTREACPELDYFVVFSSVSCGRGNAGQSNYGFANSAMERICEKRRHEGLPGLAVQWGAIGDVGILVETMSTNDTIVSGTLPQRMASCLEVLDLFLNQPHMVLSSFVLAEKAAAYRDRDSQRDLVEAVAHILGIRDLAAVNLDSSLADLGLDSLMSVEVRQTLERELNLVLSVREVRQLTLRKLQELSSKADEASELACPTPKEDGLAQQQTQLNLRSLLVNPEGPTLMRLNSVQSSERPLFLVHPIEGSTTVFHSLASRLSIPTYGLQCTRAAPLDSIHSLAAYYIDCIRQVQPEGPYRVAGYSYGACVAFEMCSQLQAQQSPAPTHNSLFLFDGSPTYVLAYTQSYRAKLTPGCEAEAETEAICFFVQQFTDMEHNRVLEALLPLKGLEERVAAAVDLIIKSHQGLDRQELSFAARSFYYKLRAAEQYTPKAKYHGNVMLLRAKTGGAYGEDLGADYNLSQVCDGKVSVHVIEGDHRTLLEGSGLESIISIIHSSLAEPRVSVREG
Chain of Nonstructural protein 1 (Q194T2 whole entry): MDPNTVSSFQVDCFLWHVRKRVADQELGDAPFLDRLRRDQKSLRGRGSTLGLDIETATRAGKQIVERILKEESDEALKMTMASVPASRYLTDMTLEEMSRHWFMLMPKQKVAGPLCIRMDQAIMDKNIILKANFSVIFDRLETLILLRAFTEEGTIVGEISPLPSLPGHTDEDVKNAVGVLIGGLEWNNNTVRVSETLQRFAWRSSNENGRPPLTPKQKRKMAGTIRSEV
Chain of Kallikrein-7 (P49862 whole entry): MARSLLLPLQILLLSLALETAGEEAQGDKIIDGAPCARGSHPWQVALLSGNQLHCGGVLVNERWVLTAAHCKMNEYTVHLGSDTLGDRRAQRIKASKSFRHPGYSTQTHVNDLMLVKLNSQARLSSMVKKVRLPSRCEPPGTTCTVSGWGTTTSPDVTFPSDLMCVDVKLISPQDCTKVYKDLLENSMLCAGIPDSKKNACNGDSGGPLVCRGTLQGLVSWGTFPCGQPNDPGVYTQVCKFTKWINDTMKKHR

COc1cccc(C(=O)N[C@H](C(=O)N2CCC[C@H]2C(=O)NCCc2ccccc2Cl)C2CCCCC2)c1
EC50 [1]: 6.72 µM (active)
EC50 (cells [2]): > 29.9 µM (inactive)
IC50 [3]: 6.66 µM (active)
IC50 (cells [4]): > 29.9 µM (inactive)

CCOC(=O)C(NCCc1ccccc1)(NC(=O)CC)C(F)(F)F (stereo not given)
EC50 [1]: 1.81 µM (active)
EC50 (cells [2]): > 29.9 µM (inactive)
IC50 [3]: 8.43 µM (active)
IC50 (cells [4]): > 29.9 µM (inactive)

Cc1ccc(C)c(NC(=O)c2ccc3ccccc3n2)c1
EC50 (cells [5]): > 67.5 µM (inactive)
EC50 [6]: > 67.5 µM (inactive)

NS(=O)(=O)c1ccc(CCNC(=O)CNCCc2ccccc2)cc1
EC50 [1]: 1.07 µM (active)
EC50 (cells [2]): > 29.9 µM (inactive)
IC50 [3]: 3.56 µM (active)
IC50 (cells [4]): > 29.9 µM (inactive)

CCOC(=O)c1c(C)nc(-c2ccccc2)nc1N
EC50 (cells [5]): > 67.5 µM (inactive)
EC50 [6]: > 67.5 µM (inactive)

O=C(O)CCC(=O)NN1C(=O)c2ccccc2NC1c1ccc(F)cc1 (stereo not given)
EC50 (Kallikrein-7): > 0.286 µM (active)

NS(=O)(=O)c1ccc(N/N=C/C=C/c2ccccc2[N+](=O)[O-])cc1
IC50 [7]: 13.7 µM (inactive)
IC50 [8]: > 69.5 µM (inactive)

Cc1cc(N(C)C)nc(Nc2ccccc2)n1
EC50 [1]: 0.128 µM (active)
EC50 (cells [2]): > 29.9 µM (inactive)
IC50 [3]: 0.273 µM (active)
IC50 (cells [4]): > 29.9 µM (inactive)

O=C(/C=C/Nc1ccc(F)cc1)c1cccs1
EC50 (cells [5]): > 67.6 µM (inactive)
EC50 [6]: > 67.6 µM (inactive)

Cc1ccc(-n2[nH]c(C)c(/C=N/Nc3ccc([N+](=O)[O-])cc3[N+](=O)[O-])c2=O)cc1C
IC50 [9]: 3.32 µM (active)
IC50 (Fatty acid synthase [10]): 53.5 µM (inactive)
IC50 [11]: 10.5 µM (active)
IC50 (Fatty acid synthase [12]): 32.9 µM (inactive)
AC50 [13]: 14 µM (active)

CCCCC[C@@H](C)N1C[C@@H](COCc2ccccc2)Oc2cc(N3CCC[C@H]3CO)ccc2S1(=O)=O
IC50 [7]: 9.07 µM (active)
IC50 [8]: > 69.5 µM (inactive)

COc1cc2c(ccc3c4cc(OC)c(OC)cc4c[n+](C)c23)cc1O [FAGARONINE]
GI50 (P388/ADR): 66.5 µM (inactive)
GI50 (SN12K1): 1.95 µM (inactive)
GI50 (P388): 0.489 µM (active)
IC50 (Nonstructural protein 1): > 100 µM (active)
AC50 [14]: < 0.244 µM (active)
IC50 [15]: 42.5 µM (active)

CCN1CCN(c2ccc(/N=C/c3ccccc3O)cc2)CC1
AC50 [14]: 2.23 µM (active)
IC50 [15]: 20.8 µM (active)
